The conditions of data set [1]: Sonesson's thesis 1995; cited from earlier work.
Data set [2] concerns synthesis of dopamine in the striatum of the brain. The conditions noted are these: Sonesson's thesis 1995; cited from earlier work.
The next data set has as its target human 5-HT6 receptor (Homo sapiens, UniProt P50406). Kind of data set: R-SAT assay 5-HT6. The class given is cell-based. The conditions noted are these: Table 3, 5-HT6.
The target of the next data set is T1, human 5-HT7 receptor (Homo sapiens, UniProt P34969).
T1 construct: expressed in transfected cells; host or cells: NIH/3T3
T1 sequence (P34969 whole entry): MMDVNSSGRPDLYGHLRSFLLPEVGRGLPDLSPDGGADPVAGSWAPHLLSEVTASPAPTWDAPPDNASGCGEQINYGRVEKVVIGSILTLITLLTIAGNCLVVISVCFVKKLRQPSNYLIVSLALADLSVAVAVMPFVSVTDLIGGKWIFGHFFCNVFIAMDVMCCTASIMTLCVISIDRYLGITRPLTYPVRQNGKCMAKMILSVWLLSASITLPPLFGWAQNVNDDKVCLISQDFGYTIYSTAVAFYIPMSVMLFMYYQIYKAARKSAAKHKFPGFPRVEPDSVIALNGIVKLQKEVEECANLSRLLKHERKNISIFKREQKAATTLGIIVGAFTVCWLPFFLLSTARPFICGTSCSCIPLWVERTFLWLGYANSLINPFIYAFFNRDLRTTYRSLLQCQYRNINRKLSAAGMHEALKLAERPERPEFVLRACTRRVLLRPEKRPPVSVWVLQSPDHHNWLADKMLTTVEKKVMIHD
The data set can be described thus: R-SAT assay 5-HT7. The note with it: Table 3, 5-HT7; percent response of reference 5-CT. In kind it is cell-based.

In the next data set the target is T2, human D3 receptor (Homo sapiens, UniProt P35462).
T2 construct: expressed in transfected cells
T2 sequence (P35462 whole entry): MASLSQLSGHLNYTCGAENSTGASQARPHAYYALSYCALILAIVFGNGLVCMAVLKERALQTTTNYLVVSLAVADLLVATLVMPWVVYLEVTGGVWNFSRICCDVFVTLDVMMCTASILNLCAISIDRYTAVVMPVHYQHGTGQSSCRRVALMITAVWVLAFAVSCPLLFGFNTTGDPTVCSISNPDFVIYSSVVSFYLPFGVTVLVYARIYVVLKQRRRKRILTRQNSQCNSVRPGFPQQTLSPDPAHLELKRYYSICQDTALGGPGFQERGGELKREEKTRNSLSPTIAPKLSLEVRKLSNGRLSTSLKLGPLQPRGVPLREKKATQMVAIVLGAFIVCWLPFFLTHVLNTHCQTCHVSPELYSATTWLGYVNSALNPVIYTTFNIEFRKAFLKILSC
The data set can be described thus: R-SAT assay D3. In kind it is cell-based. The note with it: Table 3, D3.

Another data set addresses T3, human M5 receptor (Homo sapiens, UniProt P08912).
T3 construct: expressed in transfected cells; host or cells: NIH/3T3 cells, transient transfection, pSI vector
Kind of data set: R-SAT assay M5. The class given is cell-based. The conditions noted are these: Table 3, M5; percent response of reference Carbachol.

For data set [3] the following is noted: clinical observation; cited from earlier work.
For another data set, the target named is 5-HT2B receptors (Homo sapiens, UniProt P41595). Kind of data set: PI hydrolysis assay on 5-HT2B receptors.
5-HT2B receptors, sequence (P41595 whole entry): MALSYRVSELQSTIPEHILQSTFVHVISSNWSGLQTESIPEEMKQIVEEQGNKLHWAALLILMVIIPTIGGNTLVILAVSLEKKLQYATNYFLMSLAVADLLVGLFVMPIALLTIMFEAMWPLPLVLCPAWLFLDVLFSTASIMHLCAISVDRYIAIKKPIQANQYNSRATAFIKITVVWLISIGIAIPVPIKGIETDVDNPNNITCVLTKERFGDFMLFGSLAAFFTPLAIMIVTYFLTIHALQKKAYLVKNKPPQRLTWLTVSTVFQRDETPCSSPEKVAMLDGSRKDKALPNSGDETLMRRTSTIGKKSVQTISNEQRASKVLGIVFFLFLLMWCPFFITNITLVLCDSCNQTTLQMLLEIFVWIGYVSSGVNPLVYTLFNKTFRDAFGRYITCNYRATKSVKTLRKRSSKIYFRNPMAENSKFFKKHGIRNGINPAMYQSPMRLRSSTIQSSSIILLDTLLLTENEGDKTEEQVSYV

Where only a bound is given, the exact number is not on record here.

human 5-HT6 receptor, sequence (P50406 whole entry): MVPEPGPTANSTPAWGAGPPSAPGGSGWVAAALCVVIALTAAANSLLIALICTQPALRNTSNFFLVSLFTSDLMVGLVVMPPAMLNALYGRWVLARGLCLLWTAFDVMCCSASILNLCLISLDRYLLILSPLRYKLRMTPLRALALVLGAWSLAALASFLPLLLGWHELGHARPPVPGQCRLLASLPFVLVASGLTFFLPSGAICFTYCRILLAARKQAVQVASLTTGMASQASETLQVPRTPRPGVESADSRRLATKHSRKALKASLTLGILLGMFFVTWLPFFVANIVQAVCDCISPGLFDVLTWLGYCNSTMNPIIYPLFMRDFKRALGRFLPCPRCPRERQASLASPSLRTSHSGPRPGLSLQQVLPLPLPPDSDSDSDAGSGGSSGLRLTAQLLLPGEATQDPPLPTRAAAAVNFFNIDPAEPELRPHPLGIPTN
T3 sequence (P08912 whole entry): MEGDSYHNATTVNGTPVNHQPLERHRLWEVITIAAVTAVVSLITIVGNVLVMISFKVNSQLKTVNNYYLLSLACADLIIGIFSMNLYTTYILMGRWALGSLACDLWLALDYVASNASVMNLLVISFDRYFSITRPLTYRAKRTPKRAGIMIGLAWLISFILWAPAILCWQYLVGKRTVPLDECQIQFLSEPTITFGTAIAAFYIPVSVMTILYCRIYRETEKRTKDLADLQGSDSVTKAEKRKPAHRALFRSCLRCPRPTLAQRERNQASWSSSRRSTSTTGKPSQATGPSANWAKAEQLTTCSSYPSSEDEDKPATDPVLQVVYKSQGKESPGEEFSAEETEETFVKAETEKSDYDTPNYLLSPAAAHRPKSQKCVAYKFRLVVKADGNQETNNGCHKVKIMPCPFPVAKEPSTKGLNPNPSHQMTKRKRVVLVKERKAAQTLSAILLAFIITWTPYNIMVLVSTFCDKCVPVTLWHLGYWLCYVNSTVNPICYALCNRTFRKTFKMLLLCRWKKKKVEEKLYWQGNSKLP
Experimental for 5-HT2B receptors: After lysing the cells with 50 μl of 0.1M formic acid, 20 μl each cell lysate was mixed with 80 μl (1 mg) RNA Binding YSi-SPA beads (GE Healthcare, Chalfont St. Giles, UK) on PICO plates (PerkinElmer) and counted on a TopCount (Packard).

As for `CCCN1CCC[C@H](c2cccc(S(C)(=O)=O)c2)C1` [(+)-OSU6162, (3R)-3-[3-(methylsulfonyl)phenyl]-1-propylpiperidine], the “change in behavioral activity” value in data set [1] is “not to induce any change in behavioral activity”. For the same compound, the “synthesis of dopamine in the striatum of the brain” value in data set [2] is reported as “weak increase in the synthesis of dopamine in the striatum of the brain”.

Take `CCCN1CCC[C@@H](c2cccc(S(C)(=O)=O)c2)C1` [(−)-OSU6162, (3S)-3-[3-(methylsulfonyl)phenyl]-1-propylpiperidine]: the EC50 at human 5-HT6 receptor (negative logarithm of EC50 in molar, read-out: pEC50 (converted)) was above 10 µM; at human D3 receptor (negative logarithm of EC50 in molar), 3.98 µM; at 5-HT2B receptors it was 0.631 µM. For the same compound, the “Eff (%)” value at human 5-HT6 receptor (percent response of reference 5-CT) was 52%; at human 5-HT7 receptor, 7%; on human D3 receptor (percent response of reference Pergolide) it was 54%; at human M5 receptor, −5%. For the same compound, in data set [3], the hallucinogenic activity entry is listed as “no hallucinogenic activity”. Moreover, the “efficacy in PI hydrolysis assays on 5-HT2B receptors” value on 5-HT2B receptors (data not shown) is 24%.

The record behind these values is patent US20130197032A1, “[…] COMPOUNDS FOR THE TREATMENT OF NEUROLOGICAL AND […] DISORDERS” (A. CARLSSON RESEARCH AB, priority 2010, published 2013).
